# Values quoted from earlier work as cited in US20140073694A1, “CYSTAMINE ANALOGUES FOR THE TREATMENT OF PARKINSON'S DISEASE” (UNIVERSITE LAVAL, priority 2011, published 2014).
# Test system: Huntington's disease patients
# Conditions: cited from earlier work
compound,measurement,setting,value
NCCS.O=C(O)C(O)C(O)C(=O)O (centres unmarked) [cysteamine bitartrate],clinical efficacy,,clinical efficacy was not demonstrated
same,tolerable dose,dose escalation 10 to 70 mg/kg per day,20 mg/kg per day
